Source: paper PMC12127550 (The Journal of Biological Chemistry, 2025)
Entries after “also recorded” stand apart in the source; their conditions may differ. Where two headings read alike, the source gives them in different places.

Legend:
OATP1B3 F555H = conditions: F555H mutation; cited from earlier work
OATP1B1 [1] = conditions: cited from earlier work
OATP1B1 H555F = conditions: H555 F variant; cited from earlier work
OATP1B1 [2] = type: cell-based, human; conditions: HEK293 over-expressing OATP1B1; substrate not specified at the place

O=C(O[C@@H]1Cc2c(O)cc(O)cc2O[C@@H]1c1cc(O)c(O)c(O)c1)c1cc(O)c(O)c(O)c1 [EGCG, epigallocatechin gallate]
EGCG transport by OATP1B3 (OATP1B3 F555H): significantly reduced

C=CC1=C(C)/C(=C/c2[nH]c(Cc3[nH]c(/C=C4\NC(=O)C(C)=C4C=C)c(C)c3CCC(=O)O)c(CCC(=O)O)c2C)NC1=O [bilirubin]
inhibition of and transport by OATP1B1 (OATP1B1 [1]; no reference given): is a natural transport substrate, but does not inhibit transport

CO[C@H]1/C=C/O[C@@]2(C)Oc3c(C)c(O)c4c(O)c(c(/C=N/N5CCN(C)CC5)c(O)c4c3C2=O)NC(=O)/C(C)=C\C=C\[C@H](C)[C@H](O)[C@@H](C)[C@@H](O)[C@@H](C)[C@H](OC(C)=O)[C@@H]1C [rifampicin]
inhibition of and transport by OATP1B1 (OATP1B1 [1]): both inhibits and is transported by OATP1B1

cholecystokinin-8: called an OATP1B1-specific substrate
uptake by OATP1B1 (OATP1B1 H555F): abolished

B1: Sb5: synthetic nanobody (sybody) that binds to OATP1B1 in both its apo and cyclosporine A-bound forms (antibody, V domains shown)
VH: QVQLVESGGGLVQAGGSLRLSCAASGFPVNLSYMHWYRQAPGKEREWVAAISSWGWHTEYADSVKGRFTISRDNAKNTVYLQMNSLKPEDTAVYYCHVRVGRSYFGQGTQVSVSA
inhibition of OATP1B1 substrate transport (OATP1B1 [2]): does not impair the ability of OATP1B1 to transport substrates; also recorded: did not inhibit substrate transport by OATP1B1
